In BindingDB's records for doi:10.1016/s0960-894x(01)00019-1 (Glaxowellcome Medicines Research Centre, 2001) one finds IC50 data, which are given here for 14 compounds.

The experiment in a line: Inhibitory activity against influenza A sialidase (Aichi).
As a reminder, the IC50 is the concentration that inhibits the measured activity by half. Lower therefore signals greater potency in that assay. As for `CCCN(CCC)C(=O)[C@@H]1OC(C(=O)O)=C[C@@H](N)[C@H]1NC(C)=O` [(4R,5R,6R)-5-Acetylamino-4-amino-6-dipropylcarbamoyl-5,6-dihydro-4H-pyran-2-carboxylic acid], the half-inhibitory concentration (IC50) came out at 140 nM.
With `CCCN(CCc1ccccc1)C(=O)[C@@H]1OC(C(=O)O)=C[C@H](N)[C@H]1NC(=O)CC` [(4S,5R,6R)-4-Amino-6-(phenethyl-propyl-carbamoyl)-5-propionylamino-5,6-dihydro-4H-pyran-2-carboxylic acid], the midpoint of inhibition, the IC50, lay at 0.7 nM.
In the case of `CCCN(CCC)C(=O)[C@@H]1OC(C(=O)O)=C[C@H](NCC)[C@H]1NC(C)=O` [(4S,5R,6R)-5-Acetylamino-6-dipropylcarbamoyl-4-ethylamino-5,6-dihydro-4H-pyran-2-carboxylic acid] it was 420 nM; in that of `CCCN(CCc1ccccc1)C(=O)[C@@H]1OC(C(=O)O)=C[C@@H](O)[C@H]1NC(C)=O` [(4R,5R,6R)-5-Acetylamino-4-hydroxy-6-(phenethyl-propyl-carbamoyl)-5,6-dihydro-4H-pyran-2-carboxylic acid], 17 nM; in that of `CCCN(CCc1ccccc1)C(=O)[C@@H]1OC(C(=O)O)=C[C@H](N)[C@H]1NC(=O)C(F)(F)F` [(4S,5R,6R)-4-Amino-6-(phenethyl-propyl-carbamoyl)-5-(2,2,2-trifluoro-acetylamino)-5,6-dihydro-4H-pyran-2-carboxylic acid], 3 nM.
`CCCN(CCC)C(=O)[C@@H]1OC(C(=O)O)=C[C@H](NC)[C@H]1NC(C)=O` [(4S,5R,6R)-5-Acetylamino-6-dipropylcarbamoyl-4-methylamino-5,6-dihydro-4H-pyran-2-carboxylic acid] gave an IC50 of 240 nM.
Turning to `CCCC(=O)N[C@@H]1[C@@H](N)C=C(C(=O)O)O[C@H]1C(=O)N(CCC)CCc1ccccc1` [(4S,5R,6R)-4-Amino-5-butyrylamino-6-(phenethyl-propyl-carbamoyl)-5,6-dihydro-4H-pyran-2-carboxylic acid], the IC50 turned out to be 43000 nM.
Next, `CCCN(CCc1ccccc1)C(=O)[C@@H]1OC(C(=O)O)=CC[C@H]1NC(C)=O` [(5R,6R)-5-Acetylamino-6-(phenethyl-propyl-carbamoyl)-5,6-dihydro-4H-pyran-2-carboxylic acid]: 7 nM; `CCCN(CCC)C(=O)[C@@H]1OC(C(=O)O)=C[C@H](N)[C@H]1NC(=O)CC` [(4S,5R,6R)-4-Amino-6-dipropylcarbamoyl-5-propionylamino-5,6-dihydro-4H-pyran-2-carboxylic acid]: 5 nM.
On to `CCCN(CCc1ccccc1)C(=O)[C@@H]1OC(C(=O)O)=C[C@H](N)[C@H]1NC(=O)C1CC1` [(4S,5R,6R)-4-Amino-5-(cyclopropanecarbonyl-amino)-6-(phenethyl-propyl-carbamoyl)-5,6-dihydro-4H-pyran-2-carboxylic acid], for which the IC50 stood at 50 nM.
Next, `CCCN(CCc1ccccc1)C(=O)[C@@H]1OC(C(=O)O)=C[C@H](O)[C@H]1NC(C)=O` [(4S,5R,6R)-5-Acetylamino-4-hydroxy-6-(phenethyl-propyl-carbamoyl)-5,6-dihydro-4H-pyran-2-carboxylic acid]: 7 nM.
`CCCN(CCC)C(=O)[C@@H]1OC(C(=O)O)=C[C@H](N)[C@H]1NC(=O)C(C)C` [(4S,5R,6R)-4-Amino-6-dipropylcarbamoyl-5-isobutyrylamino-5,6-dihydro-4H-pyran-2-carboxylic acid] registered an IC50 of 17000 nM.
Consider `CCCN(CCC)C(=O)[C@@H]1OC(C(=O)O)=C[C@H](N)[C@H]1NC(=O)C(F)(F)F` [(4S,5R,6R)-4-Amino-6-dipropylcarbamoyl-5-(2,2,2-trifluoro-acetylamino)-5,6-dihydro-4H-pyran-2-carboxylic acid], for which half-maximal inhibition (IC50) required 0.3 nM.
Consider `CCCN(CCC)C(=O)[C@@H]1OC(C(=O)O)=C[C@H](N)[C@H]1NS(C)(=O)=O` [(4S,5R,6R)-4-Amino-6-dipropylcarbamoyl-5-methanesulfonylamino-5,6-dihydro-4H-pyran-2-carboxylic acid], for which half-maximal inhibition (IC50) required 3000 nM. This IC50 is about 10000-fold higher than that of the compound before.
